Values after ≈ are worked out from the molar mass of the structure shown.
How the values were obtained:
Assay type in all cases: functional
[1] = system: Citrobacter freundii; assay: Antibacterial activity against Citrobacter freundii isolate Cf1614 harboring IncL/M plasmid and blaIMP-4-qacG2-aacA4-catB3 array by Etest method
[2] = system: Escherichia coli; assay: Antibacterial activity against Escherichia coli isolate Ec221 harboring IncA/C plasmid and blaIMP-4-qacG2-aacA4-catB3 array by Etest method
[3] = system: Klebsiella pneumoniae; assay: Antibacterial activity against Klebsiella pneumoniae isolate Kp266 harboring IncA/C plasmid and blaIMP-4-qacG2-aacA4-catB3 array by Etest method
[4] = system: Klebsiella oxytoca; assay: Antibacterial activity against Klebsiella oxytoca Ko0426 transconjugant harboring IncL/M plasmid and blaIMP-4-qacG2-aacA4-catB3 array by Etest method
[5] = system: Klebsiella pneumoniae; assay: Antibacterial activity against Klebsiella pneumoniae Kp38045 transconjugant harboring IncL/M plasmid and blaIMP-4-qacG2-aacA4-catB3 array by Etest method
[6] = system: Citrobacter youngae; assay: Antibacterial activity against Citrobacter youngae CyB38 transconjugant harboring blaIMP-4-qacG2-aacA4-catB3 array by Etest method
[7] = system: Citrobacter amalonaticus; assay: Antibacterial activity against Citrobacter amalonaticus Ca3927 transconjugant harboring IncL/M plasmid and blaIMP-4-qacG2-aacA4-catB3 array by Etest method
[8] = system: Serratia marcescens; assay: Antibacterial activity against Serratia marcescens Sm265 transconjugant harboring IncA/C plasmid and blaIMP-4-qacG2-aacA4-catB3 array by Etest method
[9] = system: Enterobacter cloacae; assay: Antibacterial activity against Enterobacter cloacae isolate El216 harboring IncA/C plasmid and blaIMP-4-qacG2-aacA4-catB3 array by Etest method
[10] = system: Klebsiella oxytoca; assay: Antibacterial activity against Klebsiella oxytoca isolate Ko0426 harboring IncL/M plasmid and blaIMP-4-qacG2-aacA4-catB3 array by Etest method
[11] = system: Escherichia coli; assay: Antibacterial activity against Escherichia coli isolate Ec211 harboring IncA/C plasmid and blaIMP-4-qacG2-aacA4-catB3 array by Etest method
[12] = system: Enterobacter cloacae; assay: Antibacterial activity against Enterobacter cloacae El3799 transconjugant harboring IncL/M plasmid and blaIMP-4-qacG2-aacA4-catB3 array by Etest method
[13] = system: Klebsiella oxytoca; assay: Antibacterial activity against Klebsiella oxytoca isolate Ko238 harboring IncA/C plasmid and blaIMP-4-qacG2-aacA4-catB3 array by Etest method
[14] = system: Escherichia coli; assay: Antibacterial activity against Escherichia coli Ec158 transconjugant harboring IncA/C plasmid and blaIMP-4-qacG2-aacA4-catB3 array by Etest method
[15] = system: Klebsiella pneumoniae; assay: Antibacterial activity against Klebsiella pneumoniae Kp1239 transconjugant harboring IncL/M plasmid and blaIMP-4-qacG2-aacA4-catB3 array by Etest method
[16] = system: Klebsiella oxytoca; assay: Antibacterial activity against Klebsiella oxytoca Ko1156 transconjugant harboring IncL/M plasmid and blaIMP-4-qacG2-aacA4-catB3 array by Etest method
[17] = system: Citrobacter amalonaticus; assay: Antibacterial activity against Citrobacter amalonaticus isolate Ca3927 harboring IncL/M plasmid and blaIMP-4-qacG2-aacA4-catB3 array by Etest method
[18] = system: Serratia marcescens; assay: Antibacterial activity against Serratia marcescens isolate Sm220 harboring IncA/C plasmid and blaIMP-4-qacG2-aacA4-catB3 array by Etest method
[19] = system: Klebsiella pneumoniae; assay: Antibacterial activity against Klebsiella pneumoniae isolate Kp1239 harboring IncL/M plasmid and blaIMP-4-qacG2-aacA4-catB3 array by Etest method
[20] = system: Morganella morganii; assay: Antibacterial activity against Morganella morganii isolate Mm38009 harboring IncL/M plasmid and blaIMP-4-qacG2-aacA4-catB3 array by Etest method
[21] = system: Klebsiella pneumoniae; assay: Antibacterial activity against Klebsiella pneumoniae isolate Kp38045 harboring IncL/M plasmid and blaIMP-4-qacG2-aacA4-catB3 array by Etest method
[22] = system: Klebsiella pneumoniae; assay: Antibacterial activity against Klebsiella pneumoniae Kp7564 transconjugant harboring IncL/M plasmid and blaIMP-4-qacG2-aacA4-catB3 array by Etest method
[23] = system: Citrobacter youngae; assay: Antibacterial activity against Citrobacter youngae isolate CyB38 harboring blaIMP-4-qacG2-aacA4-catB3 array by Etest method
[24] = system: Klebsiella oxytoca; assay: Antibacterial activity against Klebsiella oxytoca isolate Ko1156 harboring IncL/M plasmid and blaIMP-4-qacG2-aacA4-catB3 array by Etest method
[25] = system: Klebsiella pneumoniae; assay: Antibacterial activity against Klebsiella pneumoniae isolate Kp4614

Compound | MIC [1] [µg/mL] | MIC [2] [µg/mL] | MIC [3] [µg/mL] | MIC [4] [µg/mL] | MIC [5] [µg/mL] | MIC [6] [µg/mL] | MIC [7] [µg/mL] | MIC [8] [µg/mL] | MIC [9] [µg/mL] | MIC [10] [µg/mL] | MIC [11] [µg/mL] | MIC [12] [µg/mL] | MIC [13] [µg/mL] | MIC [14] [µg/mL] | MIC [15] [µg/mL] | MIC [16] [µg/mL] | MIC [17] [µg/mL] | MIC [18] [µg/mL] | MIC [19] [µg/mL] | MIC [20] [µg/mL] | other results
NC[C@H]1O[C@H](O[C@H]2[C@H](O)[C@@H](O[C@H]3O[C@H](CO)[C@@H](O)[C@H](N)[C@H]3O)[C@H](N)C[C@@H]2N)[C@H](N)C[C@@H]1O [TOBRAMYCIN] | > 8 | 8 (≈ 17.1 µM) | > 8 | 8 (≈ 17.1 µM) | 8 (≈ 17.1 µM) | 8 (≈ 17.1 µM) | 8 (≈ 17.1 µM) | 8 (≈ 17.1 µM) | > 8 | > 8 | > 8 | 8 (≈ 17.1 µM) | 8 (≈ 17.1 µM) | 8 (≈ 17.1 µM) | 8 (≈ 17.1 µM) | 8 (≈ 17.1 µM) | > 8 | > 8 | 8 (≈ 17.1 µM) | 4 (≈ 8.56 µM) | MIC [21]: 8 µg/mL (≈ 17.1 µM); MIC [22]: 8 µg/mL (≈ 17.1 µM); MIC [23]: > 8 µg/mL; MIC [24]: > 8 µg/mL; MIC [25]: 8 µg/mL (≈ 17.1 µM)
C[C@@H](O)[C@H]1C(=O)N2C(C(=O)O)=C(SCCNC=N)C[C@H]12 [IMIPENEM ANHYDROUS] | 4 (≈ 13.4 µM) | 8 (≈ 26.7 µM) | 8 (≈ 26.7 µM) | 4 (≈ 13.4 µM) | 2 (≈ 6.68 µM) | 4 (≈ 13.4 µM) | ≤ 1 | 2 (≈ 6.68 µM) | > 8 | 4 (≈ 13.4 µM) | 4 (≈ 13.4 µM) | ≤ 1 | 8 (≈ 26.7 µM) | 2 (≈ 6.68 µM) | 2 (≈ 6.68 µM) | ≤ 1 | 2 (≈ 6.68 µM) | > 8 | > 32 | 3 (≈ 10 µM) | MIC [21]: 0.75 µg/mL (≈ 2.51 µM); MIC [22]: 2 µg/mL (≈ 6.68 µM); MIC [23]: 8 µg/mL (≈ 26.7 µM); MIC [24]: 0.75 µg/mL (≈ 2.51 µM); MIC [25]: ≤ 1 µg/mL
GENTAMICIN | > 8 | < 2 | > 8 | > 8 | > 8 | < 2 | > 8 | < 2 | > 8 | > 8 | > 8 | > 8 | 4 | > 8 | > 8 | > 8 | > 8 | > 8 | > 8 | > 8 | MIC [21]: > 8 µg/mL; MIC [22]: > 8 µg/mL; MIC [23]: > 8 µg/mL; MIC [24]: > 8 µg/mL; MIC [25]: > 8 µg/mL
